The test concerns rat Schwann cells. As to the kind of experiment: In vitro test using Schwann cells (Schwann cell differentiation promotion, MAG immunostaining). It is filed as cell-based. The following applies: Rattus norvegicus, 72 h, 3 days, MAG-positive area/cell nuclei; for activity at 0.3 µM: compound 0.3 μmol/L, read-out: Schwann cell differentiation promotion rate (% of vehicle) 0.3 μmol/L; for activity at 3 µM: compound 3 μmol/L, read-out: Schwann cell differentiation promotion rate (% of vehicle) 3 μmol/L. As to the method:
Biological Experiment Example 1: In Vitro Test Using Schwann Cells
• (1) Preparation of rat Schwann cells
A dorsal root ganglion (abbreviated as “DRG”, hereinafter) was excised from a newborn rat aged 0 to 2 days in a clean bench and was collected in DMEM. After the collection, the tube was centrifuged at 400 g, at room temperature for 3 minutes, then a supernatant was discarded, and a 0.25% collagenase solution was added. There resultant solution was incubated at 37° C. for 30 minutes to disperse and separate the excised DRG, and was then centrifuged at room temperature at 400 g for 3 minutes, then a supernatant was discarded, and then 0.25% Trypsin/EDTA and DNaseI were added. After the incubation at 37° C. for 30 minutes, trypsin was inactivated with DMEM supplemented with 10% FBS (10% FBS-DMEM), and centrifugation was carried out at room temperature at 400 g for 3 minutes. A supernatant was discarded, then 10% FBS-DMEM was added to the residue to prepare a cell suspension, and then the cell suspension was allowed to pass through a filter (diameter: 70 μm). The number of cells in the cell suspension which passed through the filter was counted to prepare a solution having a concentration of 2.0×10^5 cells/mL, and the suspension was seeded in a poly-D-lysine-coated 96-well black-clear plate in an amount of 100 μL/well and was then statically cultured in a CO2 incubator under the conditions including 5% of CO2, 95% of air and 37° C.
The culture medium in the cell culture plate was removed by suction using an aspirator, and then DMEM supplemented with 1% dialyzed FBS and 100 μmol/L dibutyryl cyclic AMP was added. Subsequently, a solution of a compound of the present invention dissolved in DMSO was added, and the resultant solution was statically cultured in a C02 incubator under the conditions including 5% of C02, 95% of air and a temperature of 37° C. The final concentration of the compound of the present invention in each well in the cell culture plate was adjusted to 0.1, 0.3, 1 or 3 μmol/L.
Three days after the treatment with the compound, formaldehyde was added to each well in the cell culture plate, and the cell culture plate was allowed to stand at room temperature for 30 minutes or longer. A supernatant was discarded, and then a 0.3% tritonX-100 solution was added to each well, and then the cell culture plate was allowed to stand at room temperature for 20 minutes or longer. A supernatant was discarded, then a 5-μg/mL anti-myeline-associated glycoprotein antibody (anti-MAG antibody) solution was added to each well, and then the cell culture plate was allowed to stand at room temperature for 60 minutes or longer or at 4° C. (acceptable range: 1 to 9° C.) overnight. Each well was washed with a 0.1% tritonX-100 solution three times, then a 10-μg/mL Alexa fluor 488 anti-mouse IgG solution was added to each well, and then the cell culture plate was allowed to stand at room temperature for 60 or longer or at 4° C. overnight. Each well was washed with a 0.1% tritonX-100 solution four times, and then a 1-μg/mL Hoechst33342 solution was added to each well to stain nuclei.
The Mag-positive area and the number of cell nuclei in a fluorescent image were calculated. With respect to each of the MAG-positive area and the number of cell nuclei, the sum total of values obtained in 5 viewing fields/well was determined. The values were employed as a value for the MAG-positive area and a value for the number of cell nuclei, respectively, in each well. Subsequently, a value determined by dividing the value for the MAG-positive area in each well by the value for the number of cell nuclei in the well (i.e., MAG/cell nuclei numerical value) was calculated. The Schwann cell differentiation promotion rate was determined for each of the vehicles in accordance with the following formula. […]

Each structure is given as a SMILES string.

`CN(C)C(=O)CCc1ccccc1OCC[C@@H](O)/C=C/c1cccc(NS(=O)(=O)c2ccccc2)c1` [Example 32(2), 3-[2-[(E,3R)-5-[3-(Benzenesulfonamido)phenyl]-3-hydroxypent-4-enoxy]phenyl]-N,N-dimethylpropanamide]: the activity at 0.3 µM stood at 340% and the activity at 3 µM turned out to be 788%.
As to `O=C(O)CCc1ccccc1OCCOCCc1cccc(NS(=O)(=O)c2ccccc2)c1` [Example 149, 3-[2-[2-[2-[3-(Benzenesulfonamido)phenyl]ethoxy]ethoxy]phenyl]propanoic Acid], the activity at 0.3 µM is 160% and the activity at 3 µM was 645%.
The like results for `O=C(O)CCc1ccccc1OCCCCCC1CCC(NS(=O)(=O)c2ccccc2)CC1` (stereo not shown) [Example 166, 3-[2-[5-[4-(Benzenesulfonamido)cyclohexyl]pentoxy]phenyl]propanoic acid] were, in that order, 104% and 465%.
`O=C(O)CCc1ccccc1CCCC(=O)CCc1cccc(NS(=O)(=O)c2ccccc2)c1` [Example 112, 3-[2-[6-[3-(Benzenesulfonamido)phenyl]-4-oxohexyl]phenyl]propanoic acid]: the activity at 0.3 µM was found to be 255% and the activity at 3 µM was 504%.
For `O=C(O)CCc1ccccc1OCC[C@@H](O)/C=C/c1cccc(C(=O)Nc2ccccc2)c1` [Example 12(8), 3-[2-[(E,3R)-3-Hydroxy-5-[3-(phenylcarbamoyl)phenyl]pent-4-enoxy]phenyl]propanoic acid] the same measures were 158% and 459%.
As to `O=C(O)CCc1ccccc1OCC[C@@H](O)/C=C/c1ccccc1CNS(=O)(=O)c1ccccc1` [Example 12(11), 3-[2-[(E,3R)-5-[2-(Benzenesulfonamidomethyl)phenyl]-3-hydroxypent-4-enoxy]phenyl]propanoic acid], the activity at 0.3 µM stood at 203% and the activity at 3 µM was 505%.
In the case of `O=C(O)CCc1ccccc1OCCCC(=O)CCc1cccc(NS(=O)(=O)c2ccccc2)c1` [Example 103, 3-[2-[6-[3-(Benzenesulfonamido)phenyl]-4-oxohexoxy]phenyl]propanoic acid], the activity at 0.3 µM came to 199% and the activity at 3 µM is 354%.
As for `O=C(O)CCc1ccccc1OCC[C@@H](O)/C=C/c1ccccc1NC(=O)c1ccccc1` [Example 12(5), 3-[2-[(E,3R)-5-(2-Benzamidophenyl)-3-hydroxypent-4-enoxy]phenyl]propanoic acid], the activity at 0.3 µM amounted to 147% and the activity at 3 µM worked out at 234%.
With `O=C(O)CCc1ccccc1OCC[C@@H](O)/C=C/c1cccc(NS(=O)(=O)c2ccccn2)c1` [Example 74(16), 3-[2-[(E,3R)-3-Hydroxy-5-[3-(pyridin-2-ylsulfonylamino)phenyl]pent-4-enoxy]phenyl]propanoic acid], the activity at 0.3 µM amounted to 212% and the activity at 3 µM is 300%.
For `O=C(O)CCc1ccccc1OCC[C@@H](O)/C=C/c1cccc(NCc2ccccc2)c1` [Example 12(6), 3-[2-[(E,3R)-5-[3-(Benzylamino)phenyl]-3-hydroxypent-4-enoxy]phenyl]propanoic acid] the same measures were 144% and 435%.
On to `O=C(O)CCc1ccccc1OCC[C@@H](O)CCc1cccc(NS(=O)(=O)C2CCCC2)c1` [Example 75, 3-[2-[(3S)-5-[3-(Cyclopentylsulfonylamino)phenyl]-3-hydroxypentoxy]phenyl]propanoic Acid], for which the activity at 0.3 µM is 181% and the activity at 3 µM stood at 244%.
Turning to `O=C(O)CCc1ccccc1OCCC(F)(F)CCc1cccc(NS(=O)(=O)c2ccccc2)c1` [Example 139, 3-[2-[5-[3-(Benzenesulfonamido)phenyl]-3,3-difluoropentoxy]phenyl]propanoic acid], the activity at 0.3 µM stood at 209% and the activity at 3 µM is 541%.
The like results for `O=C(O)CCc1ccccc1OCC[C@@H](O)C1CC1c1cccc(NS(=O)(=O)c2ccccc2)c1` (stereo partly drawn) [Example 39, 3-[2-[(3R)-3-[2-[3-(Benzenesulfonamido)phenyl]cyclopropyl]-3-hydroxypropoxy]phenyl]propanoic acid] were, in that order, 211% and 323%.
In the case of `O=C(CCc1ccccc1OCC[C@@H](O)/C=C/c1cccc(NS(=O)(=O)c2ccccc2)c1)N1CCOCC1` [Example 32(1), N-[3-[(E,3R)-3-Hydroxy-5-[2-(3-morpholin-4-yl-3-oxopropyl)phenoxy]pent-1-enyl]phenyl]benzenesulfonamide], the activity at 0.3 µM was found to be 408%.
As for `O=C(O)CCc1ccccc1OCC[C@@H](O)/C=C/c1cccc(NS(=O)(=O)c2ccsc2)c1` [Example 74(19), 3-[2-[(E,3R)-3-Hydroxy-5-[3-(thiophen-3-ylsulfonylamino)phenyl]pent-4-enoxy]phenyl]propanoic Acid], the activity at 0.3 µM was 187% and the activity at 3 µM came out at 270%.
The like results for `O=C(O)CCc1ccccc1OCC[C@@H](O)/C=C/c1cccc(NS(=O)(=O)c2coc3ccccc23)c1` [Example 74(17), 3-[2-[(E,3R)-5-[3-(1-Benzofuran-3-ylsulfonylamino)phenyl]-3-hydroxypent-4-enoxy]phenyl]propanoic acid] were, in that order, 85.6% and 252%.
For `O=C(O)CCc1ccccc1OCC[C@@H](O)/C=C/c1cccc(C(O)CCc2ccccc2)c1` (stereo partly drawn) [Example 28, 3-[2-[(E,3R)-3-Hydroxy-5-[3-(1-hydroxy-3-phenylpropyl)phenyl]pent-4-enoxy]phenyl]propanoic acid] the same measures were 188% and 628%.
Take `O=C(O)CCc1ccccc1OCC[C@@H](O)/C=C/c1cccc(S(=O)(=O)Nc2ccccc2)c1` [Example 12(7), 3-[2-[(E,3R)-3-Hydroxy-5-[3-(phenylsulfamoyl)phenyl]pent-4-enoxy]phenyl]propanoic acid]: the activity at 0.3 µM stood at 111% and the activity at 3 µM worked out at 379%.
For `COC(=O)CCc1ccccc1OCCC(=O)/C=C/c1cccc(NS(=O)(=O)c2ccccc2)c1` [Example 77, Methyl 3-[2-[(E)-5-[3-(benzenesulfonamido)phenyl]-3-oxopent-4-enoxy]phenyl]propanoate] the same measures were 115% and 256%.
`O=C(O)CCc1ccccc1OCCC/C=C/c1nc(C(O)Cc2ccccc2)cs1` (stereo not shown) [Example 93, 3-[2-[(E)-5-[4-(1-Hydroxy-2-phenylethyl)-1,3-thiazol-2-yl]pent-4-enoxy]phenyl]propanoic acid]: the activity at 0.3 µM turned out to be 108% and the activity at 3 µM came out at 374%.
On to `O=C(O)CCc1ccccc1OCC[C@@H](O)/C=C/c1cccc(C[C@H](O)c2ccccc2)c1` [Example 26, 3-[2-[(E,3R)-3-Hydroxy-5-[3-[(2S)-2-hydroxy-2-phenylethyl]phenyl]pent-4-enoxy]phenyl]propanoic acid], for which the activity at 0.3 µM is 196% and the activity at 3 µM amounted to 439%.
For `O=C(O)CCc1ccccc1OCC[C@@H](O)/C=C/c1ccc2c(c1)CN(S(=O)(=O)c1ccccc1)CC2` [Example 13(19), 3-[2-[(E,3R)-5-[2-(Benzenesulfonyl)-3,4-dihydro-1H-isoquinolin-7-yl]-3-hydroxypent-4-enoxy]phenyl]propanoic Acid], the activity at 0.3 µM is 142% and the activity at 3 µM came out at 598%.

For the origin of these results see patent publication US12258308B2, “Benzene derivative” (ONO PHARMACEUTICAL CO., LTD., priority 2018, dated 2025).
